Results reported in PubChem BioAssay AID2060348 (Molecular Pharmacology Branch, DTP, NCI, 2025).
“And” between values parts separate entries of the source, which are not always exact repeats. Identical values can stand only once.

System: 885724-159-R-J1-PDC spheroids viability
Test: Anticancer human tumor 885724-159-R-J1-PDC patient-derived pancreatic adenocarcinoma cell line growth inhibition [TAK]
Conditions: spheroids with HUVEC and MSC; for viability, T/C: stronger effect = lower value
From the text: Combinatorial screen of targeted agents with TAK-243 and ipatasertib in multi-cell type tumor spheroids
A high-throughput screen of multi-cell type tumor spheroids was designed to identify active combinations of targeted small molecules and TAK-243 or ipatasertib. Complex spheroids include a stromal component modeled by human endothelial cells (HUVEC) and fibroblasts modeled by human mesenchymal stem cells (MSCs). The concentration ranges selected for each drug and investigational agent were based upon clinically achievable concentrations if the clinical Cmax of the agent was known.
Compounds. The drugs and investigational agents: TAK-243 (785004), ipatasertib (767898), everolimus (733504), selumetinib (741078), bortezomib (756655), trametinib (758246), ixazomib (758254), vemurafenib (761431), dabrafenib (764134), sapanisertib (764658), alpelisib (765974), and copanlisib (816437), were obtained from the National Cancer Institute (NCI) Developmental Therapeutics Program Chemical Repository. The FDA-approved anticancer drug set is available from the NCI Developmental Therapeutics Program. […] The stock solutions were prepared in dimethyl sulfoxide (DMSO, Sigma-Aldrich, St. Louis, MO, cat. D2650) at 800-fold the tested concentration and stored at -70 degrees C prior to their use. All drugs and investigational agents were tested over a range starting from a high concentration at or near the clinical Cmax and decreasing in half-log increments. If the clinical Cmax for an agent had not been determined, the highest concentration tested was 10 microM.
NCI60 Cell Culture. NCI60 cell lines were obtained from the NCI Developmental Therapeutics Program Tumor Repository. For each lot of cells, the Repository performed Applied Biosystems AmpFLSTR Identifiler testing with PCR amplification to confirm consistency with the published Identifier STR profile for each cell line. Cells were kept in continuous culture for no more than 20 passages. The optimal seeding densities for each of the cell lines at each time point assessed were determined prior to performing the concentration response studies. Briefly, the NCI60 human tumor lines were grown as monolayers in RPMI 1640 medium supplemented with 10% FBS and 2 mmol/L L-glutamine.
An additional 2 lines were from the NCI60 cell line panel including melanomas, MALME-3M and SK-MEL-2. Pooled donor human umbilical vein endothelial cells (HUVEC, Lonza, cat. CC-2519) and human mesenchymal stem cells (hMSC, Lonza, cat. PT-2501) were purchased from Lonza (Walkersville, MD).
PDMR cell lines were grown in complete medium (DC medium): Dulbecco's modified Eagle's medium (DMEM)/F12 supplemented with 5% fetal bovine serum (FBS), 2 mM L-glutamine, 100 U/mL penicillin and 100 µg/ml streptomycin, 0.4 µg/ml hydrocortisone, 10 ng/ml epidermal growth factor (EGF) recombinant human protein, 24 µg/mL adenine, and 0.1 mg/mL primocin. During culture from frozen stock vials, PDMR cells were cultured in the same medium containing 10 µM Y-27632 (see Table 3). The PDCs were cultured in complete DMEM/F12 media without 10 microM Y-27632 dihydrochloride for at least two passages prior to the screen. The pooled donor HUVEC and hMSC were cultured in endothelial cell growth medium 2 (PromoCell, Heidelberg, Germany, cat. C-22011) and mesenchymal stem cell growth medium 2 (PromoCell, cat. C-28009), respectively. For all experiments, HUVEC and hMSC were used at passages </=5.
For the pre-screen, cell seeding densities were determined from a titration spanning the range from 5,000 to 313 cells per well. The mct-spheroids including 60% malignant cells, 25% HUVEC and 15% MSC dispensed as a mixture into U-bottom Ultra-Low Attachment 384-well plates (Corning, NY)
High-throughput Drug Combination Screening.
Prior to their inoculation into 384-well plates, malignant cells, HUVEC, and hMSC were removed from T flasks using TrypLE express (Thermo Fisher Scientific, cat. 12605036) and harvested by centrifugation for 5 min at 233 x g. […]

[1] = curve of first compound, second compound 0.3 µM
[2] = curve of first compound, second compound 0.949 µM
[3] = curve of first compound, second compound 3 µM
[4] = curve of first compound, second compound 9.49 µM
[5] = curve of first compound, second compound 30 µM
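Further: spheroids exposed to drugs for seven days.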
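Wherever viability, T/C is given: 100% = DMSO vehicle control viability.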

`Cn1cnc2c(F)c(Nc3ccc(Br)cc3Cl)c(C(=O)NOCCO)cc21` + CC(C)NCC(C(=O)N1CCN(c2ncnc3c2C(C)CC3O)CC1)c1ccc(Cl)cc1 was tested, and the IC50 [1] was < 9.49 nM, the IC50 [2] was < 9.49 nM and the IC50 [3] was < 9.49 nM. For the same compound, the IC50 [4] was < 9.49 nM, the IC50 [5] was < 9.49 nM and the viability, T/C (second compound 0.3 µM, first compound 0.00949 µM) was 49.1%. It also gave a viability, T/C (second compound 0.3 µM, first compound 0.03 µM) of 42.5%, a viability, T/C (second compound 0.3 µM, first compound 0.0949 µM) of 29.3% and a viability, T/C (second compound 0.3 µM, first compound 0.3 µM) of 24.9%. It also gave a viability, T/C (second compound 0.3 µM, first compound 0.949 µM) of 18.8%, a viability, T/C (second compound 0.3 µM, first compound 3 µM) of 14.1% and a viability, T/C (second compound 0.949 µM, first compound 0.00949 µM) of 45.2%. The viability, T/C (second compound 0.949 µM, first compound 0.03 µM) was 41.2%, the viability, T/C (second compound 0.949 µM, first compound 0.0949 µM) was 30.5% and the viability, T/C (second compound 0.949 µM, first compound 0.3 µM) was 22.6%. The viability, T/C (second compound 0.949 µM, first compound 0.949 µM) was 16.6%, the viability, T/C (second compound 0.949 µM, first compound 3 µM) was 10.3% and the viability, T/C (second compound 3 µM, first compound 0.00949 µM) was 42%. The viability, T/C (second compound 3 µM, first compound 0.03 µM) was 37.1%, the viability, T/C (second compound 3 µM, first compound 0.0949 µM) was 27.5% and the viability, T/C (second compound 3 µM, first compound 0.3 µM) was 18.7%. It also gave a viability, T/C (second compound 3 µM, first compound 0.949 µM) of 12.6%, a viability, T/C (second compound 3 µM, first compound 3 µM) of 7.23% and a viability, T/C (second compound 9.49 µM, first compound 0.00949 µM) of 36.7%. The viability, T/C (second compound 9.49 µM, first compound 0.03 µM) was 27.9%, the viability, T/C (second compound 9.49 µM, first compound 0.0949 µM) was 16.8% and the viability, T/C (second compound 9.49 µM, first compound 0.3 µM) was 13.7%. For the same compound, the viability, T/C (second compound 9.49 µM, first compound 0.949 µM) was 9.53%, the viability, T/C (second compound 9.49 µM, first compound 3 µM) was 4.7% and the viability, T/C (second compound 30 µM, first compound 0.00949 µM) was 20.5%. It also gave a viability, T/C (second compound 30 µM, first compound 0.03 µM) of 13.7%, a viability, T/C (second compound 30 µM, first compound 0.0949 µM) of 9.15% and a viability, T/C (second compound 30 µM, first compound 0.3 µM) of 5.41%. It also gave a viability, T/C (second compound 30 µM, first compound 0.949 µM) of 3.69% and a viability, T/C (second compound 30 µM, first compound 3 µM) of 2.03%.

For `Cc1nc(NC(=O)N2CCCC2C(N)=O)sc1-c1ccnc(C(C)(C)C(F)(F)F)c1` (centres undefined), the viability, T/C (compound 0.0316 µM) was 100% and 108%, the viability, T/C (compound 0.1 µM) was 91.1% and 88.8% and the viability, T/C (compound 0.316 µM) was 72.9% and 70.5%. The viability, T/C (compound 1 µM) was 55.2% and 64.1%, the viability, T/C (compound 3.16 µM) was 42.3% and 43.4% and the viability, T/C (compound 10 µM) was 26.8% and 29.2%. For the same compound, the IC50 (curve of compound) was 1590 nM and 1990 nM.

In the case of `CCCS(=O)(=O)Nc1ccc(F)c(C(=O)c2c[nH]c3ncc(-c4ccc(Cl)cc4)cc23)c1F`, the viability, T/C (compound 0.316 µM) is reported as 145% and 137%, the viability, T/C (compound 1 µM) is reported as 179% and 154% and the viability, T/C (compound 3.16 µM) is reported as 187% and 177%. For the same compound, the viability, T/C (compound 10 µM) was 96.5% and 86.4%, the viability, T/C (compound 31.6 µM) was 159% and 132% and the viability, T/C (compound 100 µM) was 150% and 129%. The IC50 (curve of compound) was > 100000 nM.

In the case of `COc1c(OCCCN2CCOCC2)ccc2c3n(c(=NC(=O)c4cnc(N)nc4)nc12)CCN3` + CC(C)NCC(C(=O)N1CCN(c2ncnc3c2C(C)CC3O)CC1)c1ccc(Cl)cc1, the IC50 [1] is reported as 4.05 nM, the IC50 [2] is reported as < 3.16 nM and the IC50 [3] is reported as < 3.16 nM. The IC50 [4] was < 3.16 nM, the IC50 [5] was < 3.16 nM and the viability, T/C (second compound 0.3 µM, first compound 0.00316 µM) was 52.4%. It also gave a viability, T/C (second compound 0.3 µM, first compound 0.01 µM) of 41.2%, a viability, T/C (second compound 0.3 µM, first compound 0.0316 µM) of 27.3% and a viability, T/C (second compound 0.3 µM, first compound 0.1 µM) of 19.4%. For the same compound, the viability, T/C (second compound 0.3 µM, first compound 0.316 µM) was 13.4%, the viability, T/C (second compound 0.3 µM, first compound 1 µM) was 12.3% and the viability, T/C (second compound 0.949 µM, first compound 0.00316 µM) was 32.9%. For the same compound, the viability, T/C (second compound 0.949 µM, first compound 0.01 µM) was 27.1%, the viability, T/C (second compound 0.949 µM, first compound 0.0316 µM) was 20.3% and the viability, T/C (second compound 0.949 µM, first compound 0.1 µM) was 14.8%. It also gave a viability, T/C (second compound 0.949 µM, first compound 0.316 µM) of 12.1%, a viability, T/C (second compound 0.949 µM, first compound 1 µM) of 10.8% and a viability, T/C (second compound 3 µM, first compound 0.00316 µM) of 26.9%. For the same compound, the viability, T/C (second compound 3 µM, first compound 0.01 µM) was 20.4%, the viability, T/C (second compound 3 µM, first compound 0.0316 µM) was 16% and the viability, T/C (second compound 3 µM, first compound 0.1 µM) was 13.7%. For the same compound, the viability, T/C (second compound 3 µM, first compound 0.316 µM) was 11.6%, the viability, T/C (second compound 3 µM, first compound 1 µM) was 11.2% and the viability, T/C (second compound 9.49 µM, first compound 0.00316 µM) was 22.8%. It also gave a viability, T/C (second compound 9.49 µM, first compound 0.01 µM) of 18.9%, a viability, T/C (second compound 9.49 µM, first compound 0.0316 µM) of 13.8% and a viability, T/C (second compound 9.49 µM, first compound 0.1 µM) of 11.3%. The viability, T/C (second compound 9.49 µM, first compound 0.316 µM) was 9.95%, the viability, T/C (second compound 9.49 µM, first compound 1 µM) was 10.2% and the viability, T/C (second compound 30 µM, first compound 0.00316 µM) was 18%. The viability, T/C (second compound 30 µM, first compound 0.01 µM) was 12.7%, the viability, T/C (second compound 30 µM, first compound 0.0316 µM) was 9.8% and the viability, T/C (second compound 30 µM, first compound 0.1 µM) was 9.29%. The viability, T/C (second compound 30 µM, first compound 0.316 µM) was 6.93% and the viability, T/C (second compound 30 µM, first compound 1 µM) was 6.96%.
